For test [1], the target named is T1, hTLR9 (Homo sapiens, UniProt Q9NR96).
T1 construct: human B lymphoblasts (Daudi cells); endogenous in cells; host or cells: Daudi
Description: TLR9 inhibition, ODN2395-induced hTNFα in Daudi. It is filed as cell-based. The protocol: (§1) RAW 264.7 and differentiated THP-1 cells were seeded into 96-well plates at 2 × 10^4 cells per well, while Daudi cells were seeded at 5 × 10^4 cells per well. After stabilization for 30 min, cells were stimulated with specific TLR agonists for 4 or 24 h. Supernatants were diluted and transferred to precoated ELISA plates to measure TNF-α secretion using kits from Invitrogen. Optical absorbance was measured using a BioTek Synergy HTX multimode microplate reader, and data were interpolated using BioTek Gen5 software.
One-tailed paired Student’s t-tests were performed using Microsoft Excel (Microsoft). Semi-logarithmic conversions and nonregression curve analyses for calculating 50% lethal concentration (LC50) and 50% inhibitory concentration (IC50) values were conducted using GraphPad Prism 7.0 (GraphPad). The therapeutic index was calculated as […]. Animal experimental results are expressed as mean ± standard deviation and analyzed using SPSS v.20 (IBM SPSS Statistics). Homogeneity of variance was assessed using Levene’s test. […]

The subject of test [2] is IMQ-induced psoriasis. The test can be described thus: IMQ-induced psoriasis in mice. It is filed as in vivo, mouse. The conditions noted are these: 60 mg/kg oral daily. As to the method: Six-week-old female C57BL/6J mice were assigned to the following treatment groups: vehicle (n = 5), IMQ (n = 5), ETI41 (n = 4) and ETI60 (n = 5). The mice were obtained from Orient Bio to evaluate the effects of ETI41 and ETI60 on induced psoriasis-like symptoms. This study was approved by the Institutional Animal Care and Use Committee (IACUC; approval no. 2014-0007). Psoriasis was induced using Aldara cream (3M Pharmaceuticals), which was applied topically at 62.5 mg/cm² daily from the day after hair removal until the fourth day. Mice were orally administered 60 mg/kg ETI41 or ETI60 daily commencing on the second day of induction. For IL-23-induced psoriasis, the mice were assigned to the following treatment groups: vehicle (n = 5), IL-23 (n = 5), ETI41 (n = 5), ETI60 (n = 5) and anti-IL-17 Ab (n = 5). Recombinant mouse IL-23 (0.25 mg/kg; BioLegend) was administered via intradermal injection around the ear daily, starting the day after hair removal and continuing until the eighth day. Positive control mice received intraperitoneal (IP) injections of 30 mg/kg anti-mouse IL-17A antibody (BioLegend) on days 2, 5 and 8, while test group mice were administered daily oral doses of 60 mg/kg of ETI41 or ETI60. Changes in body weight and Psoriasis Area and Severity Index (PASI) scores (erythema, scaling and thickness) were recorded daily. Mice were initially anesthetized in an induction chamber with a gas mixture of 4% isoflurane in 70:30 […] and O2, delivered at a flow rate of 0.8 l/min. Subsequently, the isoflurane concentration was reduced to 2%, and the mice were euthanized under anesthesia via endotracheal intubation. Skin samples were collected, fixed and stained with hematoxylin and eosin for histological analysis. Dermal and epidermal thicknesses were measured using a Leica DMi8 microscope (Leica). Immunohistochemical analyses were performed using primary antibodies against CD68 (R&D Systems, MAB101141), Ki-67 (Cell Signaling Technology, 12202), IL-17A (Novus Biologicals, NBP1-72027) and IL-23 (Novus Biologicals, NBP1-76697), followed by detection using biotinylated secondary antibodies (Vector Laboratories) and diaminobenzidine (Vector Laboratories) visualization. Fluorescence measurements for IL-23-induced psoriasis were performed using primary antibodies against CD68 and Ki-67, followed by Alexa Fluor-conjugated secondary antibodies (Life Technologies). Fluorescence was analyzed using a Leica DMi8 microscope.
Anti-IL17A antibody (Ab, 60 µg) was administered by IP injection as a positive control on days 2, 5 and 8. […] CD68 and Ki-67 expression patterns were determined in skin sections from a representative of each group using immunofluorescence. i Ear skin and epidermis thickness, CD68 expression and percentage of Ki-67 cells were examined from 4’,6-diamidino-2-phenylindole-stained cells. Statistical differences between the induced case and other cases were analyzed and verified using a one-tailed Student’s t-test (*P < 0.05, **P < 0.01, ***P < 0.001).

Test [3] has as its system endosomal TLRs. The test can be described thus: Endosomal TLR-mediated TNF-α production, summary over cell lines. The test is classed as cell-based. The conditions noted are these: dose-dependent, without inducing cytotoxic effects. As to the method:
as §1
TLR activation triggers the NF-κB pathway, resulting in increased production of pro-inflammatory cytokines, such as TNF-α and IL-6.

SMILES strings stand for the structures.

T1 sequence (Q9NR96 26-1032): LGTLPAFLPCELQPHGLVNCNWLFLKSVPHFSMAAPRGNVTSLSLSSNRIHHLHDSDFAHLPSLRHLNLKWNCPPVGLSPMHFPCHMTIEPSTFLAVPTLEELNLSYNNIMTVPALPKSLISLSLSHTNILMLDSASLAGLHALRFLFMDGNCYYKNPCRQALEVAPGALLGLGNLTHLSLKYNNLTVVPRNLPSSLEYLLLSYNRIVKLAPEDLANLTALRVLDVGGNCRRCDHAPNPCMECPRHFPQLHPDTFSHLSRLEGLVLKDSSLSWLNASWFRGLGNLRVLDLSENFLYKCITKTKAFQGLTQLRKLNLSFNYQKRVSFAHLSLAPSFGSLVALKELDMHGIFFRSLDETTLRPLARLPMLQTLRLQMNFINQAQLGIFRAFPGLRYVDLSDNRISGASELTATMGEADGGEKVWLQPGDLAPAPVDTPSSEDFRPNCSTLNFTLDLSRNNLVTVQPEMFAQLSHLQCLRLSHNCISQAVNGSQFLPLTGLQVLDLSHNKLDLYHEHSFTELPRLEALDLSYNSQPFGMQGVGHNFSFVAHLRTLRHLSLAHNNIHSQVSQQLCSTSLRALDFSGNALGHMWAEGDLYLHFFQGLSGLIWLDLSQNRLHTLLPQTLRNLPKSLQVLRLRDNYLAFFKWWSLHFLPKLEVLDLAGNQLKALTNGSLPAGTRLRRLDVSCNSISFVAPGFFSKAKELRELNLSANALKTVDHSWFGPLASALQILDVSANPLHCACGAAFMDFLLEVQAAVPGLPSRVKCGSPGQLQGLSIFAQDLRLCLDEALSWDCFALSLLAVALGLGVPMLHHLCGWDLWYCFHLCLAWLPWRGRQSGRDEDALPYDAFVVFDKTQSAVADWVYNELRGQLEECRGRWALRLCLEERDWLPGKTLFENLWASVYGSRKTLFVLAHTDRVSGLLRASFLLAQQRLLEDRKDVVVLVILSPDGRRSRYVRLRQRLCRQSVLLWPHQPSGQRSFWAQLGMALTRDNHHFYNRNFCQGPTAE

As a reminder, the IC50 is the point on the concentration scale where inhibition reaches its midpoint. For the compound `Cc1cc2c(N)c3c(nc2n1CCCN(C)C)CCCCCC3` [ETI41], the IC50 in test [1] was 0.0801 µM. In test [2], the “Dermal inflammatory cell infiltration” value is given as “inhibited”; the Dermal thickness result is “significantly reduced”; the Epidermal acanthosis entry was “significantly reduced”; the “IL-17A and IL-23 expression” value is recorded as “inhibited”. In test [2], the Keratinocyte proliferation entry is “significantly reduced” and the PASI scores entry is on record as “significantly reduced”. Further, the “TNF-α production by RAW 264.7 and Daudi cells” value in test [3] was “effectively inhibited”.
Consider `COc1ccc2c3c(N)c4c(nc3n(CCCN(C)C)c2c1)CCCC4` [ETI60], for which the IC50 in test [1] amounted to 0.0209 µM. Moreover, in test [2], the “Dermal inflammatory cell infiltration” value is given as “inhibited”; the Dermal thickness entry is listed as “significantly reduced”; the Epidermal acanthosis result was “significantly reduced”; the “IL-17A and IL-23 expression” value is given as “inhibited”. For the same compound, in test [2], the Keratinocyte proliferation result is “significantly reduced” and the PASI scores result is “significantly reduced”. For the same compound, the “TNF-α production by RAW 264.7 and Daudi cells” value in test [3] was “effectively inhibited”.
